From PubChem BioAssay AID248 (DTP/NCI, 2004)
Toxic doses and inconclusive results are not listed. Cut-off read from the data, not from the text of the source: active = T/C of 150% or more; inactive = T/C below 125%.

Test system: L1210 leukemia ip in BDF1 mice, survival T/C
Assay: NCI In Vivo Anticancer Drug Screen. Data for tumor model L1210 Leukemia (intraperitoneal) in B6D2F1 (BDF1) mice
Conditions: endpoint: mean survival time, higher = longer survival
How it was run: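 Each compound was tested against a transplantable tumor grown in mice. The endpoint was survival, with treated animals benchmarked against vehicle controls as a simple ratio.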

[1] = dose: 100.0 mg/kg/injection, schedule: Q01DX009 (ip), vehicle: saline
[2] = dose: 200.0 mg/kg/injection, schedule: Q01DX009 (ip), vehicle: saline
[3] = dose: 100.0 mg/kg/injection, schedule: Q01DX009 (ip), vehicle: Klucel (hydroxypropylcellulose) (HPC)
[4] = dose: 200.0 mg/kg/injection, schedule: Q01DX009 (ip), vehicle: Klucel (hydroxypropylcellulose) (HPC)
[5] = dose: 400.0 mg/kg/injection, schedule: Q01DX009 (ip), vehicle: Klucel (hydroxypropylcellulose) (HPC)
[6] = dose: 100.0 mg/kg/injection, schedule: Q04DX003 (ip), vehicle: saline with Tween-80
[7] = dose: 200.0 mg/kg/injection, schedule: Q04DX003 (ip), vehicle: saline with Tween-80
[8] = dose: 100.0 mg/kg/injection, schedule: Q04DX003 (ip), vehicle: Klucel (hydroxypropylcellulose) (HPC)
[9] = dose: 200.0 mg/kg/injection, schedule: Q04DX003 (ip), vehicle: Klucel (hydroxypropylcellulose) (HPC)
[10] = dose: 400.0 mg/kg/injection, schedule: Q04DX003 (ip), vehicle: Klucel (hydroxypropylcellulose) (HPC)
[11] = dose: 100.0 mg/kg/injection, schedule: Q04DX002 (ip), vehicle: saline with Tween-80
[12] = dose: 200.0 mg/kg/injection, schedule: Q04DX002 (ip), vehicle: saline with Tween-80
[13] = dose: 400.0 mg/kg/injection, schedule: Q04DX002 (ip), vehicle: saline with Tween-80

Measured: T/C

O=S(=O)(/C=C/c1ccc(-c2ccccc2)cc1)c1ccccc1
inactive: dose: 100.0 mg/kg/injection, schedule: Q01DX001 (ip), vehicle: acetone 101 % of control | [1] 94 % of control | dose: 100.0 mg/kg/injection, schedule: Q04DX003 (ip), vehicle: acetone 108 % of control | dose: 200.0 mg/kg/injection, schedule: Q01DX001 (ip), vehicle: acetone 89 % of control | [2] 96 % of control | dose: 200.0 mg/kg/injection, schedule: Q04DX003 (ip), vehicle: acetone 96 % of control | dose: 400.0 mg/kg/injection, schedule: Q01DX001 (ip), vehicle: acetone 98 % of control | dose: 400.0 mg/kg/injection, schedule: Q01DX009 (ip), vehicle: saline 96 % of control | dose: 400.0 mg/kg/injection, schedule: Q04DX003 (ip), vehicle: acetone 96 % of control

O=C(O)CCOC(C[N+](=O)[O-])C(Cl)(Cl)Cl (stereo unspecified)
inactive: [3] 96 % of control | [4] 97 % of control | [5] 94 % of control

O=C1C(=O)c2ccccc2C=C1[N+](=O)[O-]
inactive: dose: 5.0 mg/kg/injection, schedule: Q01DX009 (ip), vehicle: saline 92 % of control | dose: 5.0 mg/kg/injection, schedule: Q04DX003 (ip), vehicle: saline 108 % of control | dose: 10.0 mg/kg/injection, schedule: Q01DX009 (ip), vehicle: saline 101 % of control | dose: 10.0 mg/kg/injection, schedule: Q04DX003 (ip), vehicle: saline 96 % of control | dose: 20.0 mg/kg/injection, schedule: Q01DX009 (ip), vehicle: saline 99 % of control | dose: 20.0 mg/kg/injection, schedule: Q04DX003 (ip), vehicle: saline 93 % of control

CCOC(=O)CNC1=NCCO1
inactive: dose: 100.0 mg/kg/injection, schedule: Q01DX009 (ip), vehicle: saline with Tween-80 91 % of control | dose: 200.0 mg/kg/injection, schedule: Q01DX009 (ip), vehicle: saline with Tween-80 96 % of control | dose: 400.0 mg/kg/injection, schedule: Q01DX009 (ip), vehicle: saline with Tween-80 93 % of control

CC(=O)CC(C)=Nc1cccc(N=C(C)CC(C)=O)c1
inactive: dose: 87.5 mg/kg/injection, schedule: Q04DX003 (ip), vehicle: saline with Tween-80 93 % of control | dose: 175.0 mg/kg/injection, schedule: Q04DX003 (ip), vehicle: saline with Tween-80 93 % of control | dose: 350.0 mg/kg/injection, schedule: Q04DX003 (ip), vehicle: saline with Tween-80 93 % of control

O=[N+]([O-])c1ccc(Cl)c2c([N+](=O)[O-])cccc12
inactive: [6] 94 % of control | [7] 102 % of control

OCC1(CO)COC2(CCCCC2)OC1
inactive: [8] 89 % of control | [9] 91 % of control | [10] 91 % of control

CC(Oc1ccc([N+](=O)[O-])cc1Cl)C(=O)Nc1ccc(S(=O)(=O)F)cc1 (stereo unspecified)
inactive: [8] 100 % of control | [9] 100 % of control | [10] 92 % of control

CCOC(=O)CC(O)(c1ccc(OC)cc1)c1ccc(OC)cc1
inactive: dose: 100.0 mg/kg/injection, schedule: Q01DX001 (ip), vehicle: carboxymethylcellulose (CMC) 92 % of control | dose: 200.0 mg/kg/injection, schedule: Q01DX001 (ip), vehicle: carboxymethylcellulose (CMC) 97 % of control | dose: 400.0 mg/kg/injection, schedule: Q01DX001 (ip), vehicle: carboxymethylcellulose (CMC) 95 % of control

O=[N+]([O-])c1cc(S(=O)(=O)O)cc([N+](=O)[O-])c1NN(c1ccccc1)c1ccccc1
inactive: dose: 44.0 mg/kg/injection, schedule: Q04DX003 (ip), vehicle: other 100 % of control | dose: 87.0 mg/kg/injection, schedule: Q04DX003 (ip), vehicle: other 92 % of control | dose: 175.0 mg/kg/injection, schedule: Q04DX003 (ip), vehicle: other 103 % of control

Cc1cc(C)c(S(=O)(=O)C(=O)C(=O)NN)c(C)c1
inactive: dose: 100.0 mg/kg/injection, schedule: Q01DX001 (ip), vehicle: Klucel (hydroxypropylcellulose) (HPC) 104 % of control | [8] 115 % of control | dose: 200.0 mg/kg/injection, schedule: Q01DX001 (ip), vehicle: Klucel (hydroxypropylcellulose) (HPC) 106 % of control | [9] 109 % of control | dose: 400.0 mg/kg/injection, schedule: Q01DX001 (ip), vehicle: Klucel (hydroxypropylcellulose) (HPC) 106 % of control | [10] 104 % of control

O=C(O)c1[nH]c(=O)[nH]c(=O)c1N1CCCCC1
inactive: dose: 12.0 mg/kg/injection, schedule: Q01DX001 (ip), vehicle: saline 106 % of control | dose: 25.0 mg/kg/injection, schedule: Q01DX001 (ip), vehicle: saline 101 % of control | dose: 25.0 mg/kg/injection, schedule: Q01DX009 (ip), vehicle: Klucel (hydroxypropylcellulose) (HPC) 105 % of control | dose: 50.0 mg/kg/injection, schedule: Q01DX009 (ip), vehicle: Klucel (hydroxypropylcellulose) (HPC) 92 % of control

CN(CCOc1ccccc1O)CCOc1ccccc1O
inactive: [8] 105 % of control | [4] 101 % of control | [9] 106 % of control | [5] 86 % of control | [10] 101 % of control

CCCCCOc1ccc(C=Nc2ccc(C)cc2)cc1
inactive: [3] 98 % of control | [4] 103 % of control

COc1cc(OC)c(Oc2cc(OC)c(OC)c(OC)c2)c(OC)c1
inactive: [6] 97 % of control | [7] 103 % of control | dose: 400.0 mg/kg/injection, schedule: Q04DX003 (ip), vehicle: saline with Tween-80 101 % of control

CC(=O)c1cccc(OCC(O)CN(C(C)C)C(C)C)c1 (stereo unspecified)
inactive: [1] 98 % of control | [2] 98 % of control

COc1cc(Cl)ccc1NC(=O)Oc1ccc(-c2ccccc2)cc1
inactive: [3] 116 % of control | [4] 94 % of control | [5] 92 % of control

Cc1[nH]ccc2cc3nc4ccccc4c3cc12
inactive: dose: 50.0 mg/kg/injection, schedule: Q01DX001 (ip), vehicle: saline 103 % of control | dose: 100.0 mg/kg/injection, schedule: Q01DX001 (ip), vehicle: saline 104 % of control | dose: 200.0 mg/kg/injection, schedule: Q01DX001 (ip), vehicle: saline 102 % of control | dose: 400.0 mg/kg/injection, schedule: Q01DX001 (ip), vehicle: saline 103 % of control

CCn1c2ccccc2c2nnc(NCCCO)nc21
inactive: [11] 96 % of control | dose: 100.0 mg/kg/injection, schedule: Q04DX002 (ip), vehicle: saline 101 % of control | [12] 100 % of control | dose: 200.0 mg/kg/injection, schedule: Q04DX002 (ip), vehicle: saline 97 % of control | [13] 94 % of control | dose: 400.0 mg/kg/injection, schedule: Q04DX002 (ip), vehicle: saline 101 % of control

CCCCC(CCCC)CCCC
inactive: [11] 97 % of control | [12] 106 % of control | [13] 103 % of control

CCOC(=O)c1ccc(N=Cc2cccc([N+](=O)[O-])c2)cc1
inactive: [8] 89 % of control | [9] 88 % of control | [10] 96 % of control

COc1ccc2nc3cc(Cl)ccc3c(NCC3(c4ccccc4)CCN(C)CC3)c2c1
inactive: dose: 12.5 mg/kg/injection, schedule: Q04DX003 (ip), vehicle: saline 97 % of control | dose: 25.0 mg/kg/injection, schedule: Q04DX003 (ip), vehicle: saline 90 % of control
